Experimental data from patent US11325937B2, “Glycoside compound and preparation method therefor, composition, application, and intermediate” (SHANGHAI HUTCHISON PHARMACEUTICALS LIMITED, priority 2018, dated 2022).

Tests used:
[1] = system: VEGF-A mRNA; assay: Sponge implanted animal model of inflammatory angiogenesis: VEGF-A mRNA expression; type: in vivo, male C57/BL6 mice; settings: 2 weeks; for activity in promoting VEGF-A mRNA expression compared with Salvianolate (in words): positive control Salvianolate 60 mg/kg/d, sponge implanted mice
From the text: The target pro-angiogenic compounds TG-052, TG-053, TG-054, TG-028, and TG-055 obtained in Effect Example 1 that perform well at the cellular level were further screened for the active molecules that promote VEGF-A mRNA expression in the “sponge implanted animal model” of inflammatory angiogenesis. […] This model can well reflect the expression of VEGF-A mRNA in macrophages recruited around inflammation.
A sponge implanted mouse model was established following the method as described in Zhang J, Modi Y, and Yarovinsky T, et al. Macrophage β2 integrin-mediated, HuR-dependent stabilization of angiogenic factor-encoding mRNAs in inflammatory angiogenesis. [J]. American Journal of Pathology, 2012. 180(4): 1751-1760. The mice used in the present invention was male C57/BL6 mice aged 6-8 weeks and weighing 20-25 g, purchased from Shanghai SLAC Laboratory Animal Co., Ltd, Production License No: SCXK (Shanghai) 2013-0016. The compound screened in Effect Example 1 was weighed according to the amount intended to be used in two weeks, and then mixed with a gel matrix and a solvent to prepare a sustained-release gel of the compound (see Patent Application No.: CN201610168493.9 for the details of the preparation method of the sustained-release gel and the model establishment and detection methods). The specific steps were as follows. A certain amount of the compound obtained in Effect Example 1 was weighed into a 1.5 mL EP tube, and then a certain amount of poly-L-lactic acid (PLLA) with a weight average molecular weight of less than 10,000 was weighed and mixed with the compound (at a weight ratio of the compound to PLLA of 0.5:1 to 2:1). Finally a certain amount of DMSO (less than 100 microliters) was added, spun, mixed well, and then sealed with a sealing film. After continuous ultrasonication at 200 W and 25° C. for 5 h, a sustained-release gel of the compound was obtained, which was stored at 4° C. for later use.
The prepared sustained-release gel can release the drug completely within 2 weeks. The sustained-release gel and sponge were both subcutaneously implanted in the mice at the back. After 2 weeks, the sponge was taken out, and the residual tissue and fur were removed. The sponge was transferred to a cell culture plate containing 10 mL of DMEM medium containing collagenase (Collagenase:DMEM=10 mg/10 mL), cut, and incubated for 1 h in a cell incubator. Then the culture medium containing sponge debris was filtered, and the resulting filtrate was centrifuged. The supernatant was discarded, and 500 μL of Trizol reagent was added to the pellet, and mixed uniformly by blowing. Then the liquid was transferred to a 1.5 mL EP tube, and stored at −80° C. RNA was extracted according to a conventional method, and the RNA concentration was determined using a microvolume nucleic acid and protein analyzer (Nanodrop2000c). The required volume V of RNA was calculated according to the RNA concentration, and the RNA reverse transcription reaction system was prepared according to Table 1. Then RNA reverse transcription (cDNA synthesis) was carried out according to the conditions described in Table 2. The resulting cDNA was used to prepare a fluorescence quantitative qPCR reaction solution according to Table 3. The fluorescence quantitative qPCR reaction conditions were set according to Table 4, and the fluorescence quantitative PCR reaction was performed using cDNA from the reverse transcription reaction as a template. The relative expression level 2^−ΔΔCt of the target gene was calculated from the Ct value of each sample with the blank group as a control and β-Actin as an internal reference. The expression level of VEGF-A mRNA in the cells extracted from the sponge was observed after 2 weeks. […]

[2] = system: rats with middle cerebral artery occlusion (MCAO); assay: Acute cerebral infarction model in rats with middle cerebral artery occlusion (MCAO); type: in vivo, male SD rats; settings: for ED50: Rattus norvegicus, ip, 72 h, intraperitoneal injection, TTC staining after 3 days, read-out: ED50 for infarction inhibition rate (%); for Longa nerve scoring, protective effect on nerves (in words): FIG. 5
In short: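 Male SD rats (280-320 g) with thread-occlusion MCAO; compound given i.p. 2 h pre-surgery and every 24 h after, 5 rats/group. At day 3, TTC-stained brain sections gave infarction rate and inhibition rate vs model, with ED50 from dose-response; body weight, Longa neuro score, brain water content and Evans Blue BBB permeability also assessed.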

Structure (SMILES) | VEGF-A mRNA expression level relative to blank control without drugs ([1]; 11.74 mg/kg/d, sustained-release gel, mice) | VEGF-A mRNA expression level relative to blank control without drugs ([1]; 23.48 mg/kg/d, sustained-release gel, mice) | activity in promoting VEGF-A mRNA expression compared with Salvianolate (in words) [1] | effect on inhibiting cerebral infarction (in words) ([2]; MCAO, compared with the control drugs) | ED50 ([2]; MCAO) [mg/kg] | water content in brain, effect on reducing cerebral edema (in words) ([2]; TG-028 5 mg/Kg, three days after MCAO, FIG. 6A) | integrity of blood-brain barrier, Evans Blue (in words) ([2]; TG-028 5 mg/Kg, three days after MCAO, FIG. 6B) | Longa nerve scoring, protective effect on nerves (in words) ([2]; three days after MCAO) | rate of body weight change, protection (in words) ([2]; three days after brain injury, FIG. 3) | increase of expression level of VEGF-A mRNA compared with blank control without drugs ([1]; 19.48 mg/kg/d, sustained-release gel, mice)
COc1ccc(CCCCO[C@@H]2O[C@H](CO)[C@@H](O)[C@H](O)[C@H]2O)cc1 [TG-028] | more than 6 times | more than 6 times | significantly higher than that of Salvianolate | most potent effect on inhibiting cerebral infarction in rats | 2.61 | better effect on reducing cerebral edema after acute brain injury of MCAO in rats than Edaravone, Clopidogrel bisulfate, and Salvianolate | better protective effect on blood-brain barrier after acute brain injury of MCAO in rats than Edaravone and Salvianolate | equivalent to that of Edaravone, Clopidogrel bisulfate, and Salvianolate | significant protection for rats in terms of the body weight after brain injury | –
OC[C@H]1O[C@@H](OCCc2ccccc2)[C@H](O)[C@@H](O)[C@@H]1O [TG-055] | – | – | comparable to that of Salvianolate | – | 65.3 | – | – | equivalent to that of Edaravone, Clopidogrel bisulfate, and Salvianolate | – | about 3 times
